Measurements published in patent publication US5814627A, “3, 5-disubstituted and 3, 4, 5-trisubstituted 2-isoxazolines and isoxazoles, process for their preparation and their use as pharmaceuticals” (Hoechst Aktienegesellschaft, priority 1994, dated 1998).
Where a name gives a salt, the structure may show the parent alone.

Assays:
[1] = test system: PAF-induced asthma attack; test: Test 7: antiasthmatic effect, PAF-induced asthma attack; format: in vivo; conditions: Cavia porcellus; i.d., 15 minutes before PAF; guinea pig
Method: Test 7: Testing for antiasthmatic effect
Anesthetized guinea pigs, which were cannulated in the jugular vein to allow injection of the PAF, were used for testing for antiasthmatic effect. The test preparations were also administered intravenously (i.v.), 5 min before PAF administration, into the blood stream through the same venous cannula, or else administered intraduodenally (i.d.), 15 minutes before the PAF, through an opening in the duodenum which had been installed and cannulated surgically. The bronchial width was recorded in an overflow pneumonogram before and after administering the preparation. Evaluation: ED50 in mg/kg i.d. as compared with the PAF-induced asthma attack.

[2] = test system: tumor cell line 20-10-5S (hybridoma cell line); test: Test 8: Inhibition of tumor cell proliferation; format: cell-based; conditions: 48 h + 16 h tritiated thymidine incorporation; 20-10-5S cells
[3] = test system: cyclooxygenase-dependent thrombocyte aggregation; test: Test 5: Cyclooxygenase-dependent thrombocyte aggregation; format: cell-based, human; conditions: Homo sapiens, arachidonic acid as inducer, read-out: Test 5 residual activity (cyclooxygenase-dependent thrombocyte aggregation), percent of control
Method: TEST 5. Cyclooxygenase-dependent thrombocyte aggregation
Platelet-rich plasma (PRP): to inhibit coagulation, human blood was treated with 1/10 of its volume of 3.8% sodium citrate solution. Centrifugation then takes place at 105×g for 20 minutes and the supernatant (PRP) is removed. 200 μl of PRP were preincubated, at 37° C. for 10 minutes, together with 30 μl of test substance in a PAP4 aggregometer (BioData). The test substance was dissolved in organic solvent and diluted 1:30 with buffer (50 mM TisHCl, pH 8.0; 90 mM NaCl). Aggregation is triggered with 20 μl of inducer. During the aggregation, stirring takes place at 800 rpm. Arachidonic acid, 5 mg/ml, was used as the inducer.
(§1) The values in the table show the concentration of the test substance which was employed in μM and, besides this, the residual activity measured in percent based on the control, which was set to be 100%. The interleukin is additionally indicated in test 4.

[4] = test system: adjuvant/arthritis model; test: Test 6: antiarthritic effect in the adjuvant/arthritis model; format: in vivo, rat (Wistar-Lewis); conditions: Rattus norvegicus, po, 408 h, daily for 17 days, rat, read-out: Test 6 Paw volume (% inhibition); for inhibition in vivo at 50 mg/kg: 50 mg/kg orally; for inhibition in vivo at 25 mg/kg: 25 mg/kg orally
[5] = test system: leukotriene B4 synthesis in white blood cells; test: Test 3: LTB4 formation by white blood cells; format: cell-based; conditions: Homo sapiens, read-out: Test 3 residual activity (LTB4 formation), percent of control
Method: TEST 3. LTB4 formation by white blood cells
Isolation of white blood cells:
40 ml of human blood were mixed with 8 ml of 6% dextran solution (dextran, mw: 480,000 in PM16). After one hour at room temperature, the supernatant,which was composed of white blood cells, was removed, diluted with an equal volume of PM16, and centrifuged for 15 minutes at 300×g (1600 rpm). The sediment was next resuspended in approximately 5-6 ml of PM16 and, once the cell count had been determined in a Coulter Counter, adjusted to 10^7 cells/ml.
The test mixture comprised 0.24 ml of cell suspension, 0.03 ml of 20 mM CaCl2 /5 mM MgCl2 and 5 μl of test substance. Following 15 minutes of preincubation at 37° C., the reaction was started with 0.03 ml of A23187/glutathione (100 μg of A23187/ml; 15.4 μg of glutathione/ml). The incubation was terminated after 5 minutes at 37° C. by immediate cooling of the samples down to 0° C. After centrifuging for 2 minutes in an Eppendorff Centrifuge (0° C.), the supernatant was removed and examined chromatographically.
High pressure liquid chromatography (HPLC): the HPLC equipment comprises a Kratos pump (Spectro-flow 400), a cooled automatic BT 7041 sample injector (Biotronik) having a 75 μl sample loop, a Nucleosil C18 column (100*3 mm, 5 μm particles of Chrompack), a UV detector (Kratos) Spectroflow 757 (wavelength: 280 nm, measurement range: 0.1 AUFS, time constant: 0.5 s) and a Spectra Physics integrator (SP 4270). The eluent (725 ml of methanol, 275 ml of water and 0.1 ml of acetic acid) was supplied at a flow rate of 0.7 ml/minute and at a pressure of about 100 bar.
When doing this, the measurement range which has been set can be examined and altered if necessary. It is also vital to measure the test substances at the particular test concentration (e.g.: 10^-5 M) in PM16 before the cell incubation, since the test substances might conceal the LTB4 peak. If this is the case, a lower concentration must be selected.
as §1

[6] = test system: polymorphonuclear leucocytes (PMNL); test: Test 2: Release of oxygen radicals from human PMNL; format: cell-based; conditions: read-out: Test 2 residual activity (release of oxygen radicals), percent of control
Method: Isolation of polymorphonuclear leucocytes (PMNL) from human peripheral blood for carrying out tests 1 and 2 10 ml of human blood were diluted with 10 ml of HBSS (Serva) and underlaid with 15 ml of Lymphoprep (Dr. Molter GmbH, Heidelberg). The sample was then centrifuged for 25 minutes at 400×g (1600 revolutions per minute, Minifuge 2, Heraeus, Osterode). […] A white ring, composed of mononuclear cells, is located between these two phases. The lowermost phase is composed of erythrocytes which are covered with a white layer of PMNL. The uppermost phase, and also the Lymphoprep and the white ring, were carefully removed using a syringe. The remaining sediment was carefully resuspended in 15 ml of 3% dextran in PM16 (mw: 485,000, Sigma, Deisenhofen). The suspension was then left to stand at room temperature for one hour. During this time, the erythrocytes sedimented while the PMNL remained in the supernatant. The supernatant was removed, diluted with an approximately equal volume of PM16, and centrifuged for 15 minutes at 400×g. Should the PMNL sediment be heavily contaminated with erythrocytes, it is necessary to carry out a hypotonic lysis. To do this, the sediment was resuspended in 750 μl of water. After exactly 15 seconds, the suspension was diluted with approximately 7 ml of PM16 and centrifuged for 10 minutes at 400×g. If necessary, this lysis was repeated once more. Otherwise, the PMNL sediment was resuspended in a suitable medium.
The PMNL were resuspended (5·10^6 cells/ml) in Dulbecco's PBS, supplemented with 7.5 mM glucose. Care must be taken to ensure that the PMNL are free of erythrocytes. 100 μl of PMNL, 700 μl of PBS+glucose and 100 μl of cytochrome C (9.38 mg/ml of PBS+glucose) were mixed in a semi-microcuvette. 100 μl of PMNL, 500 μl of PBS+glucose, 100 μl of cytochalasin B ([…]), 100 μl of TNF (0.05 ng) and 100 μl of cytochrome C (9.38 mg/ml of PBS+glucose) were mixed for the fMLP-induced release of oxygen. Measurements were made in a double-beam photometer meter (Perkin-Elmer 552 S) at a wavelength of 550 nm. The measurement range is 0-1 extinction units. The cuvettes were temperature-equilibrated to 37° C. The reference cuvette additionally contained 10 μl of SOD (6 mg of SOD/ml of PBS+glucose). Following a preincubation of 5 minutes, the reaction is started with 100 μl of inducer. The reaction is started with 1·10^-7 mol of fMLP.
as §1

With `CC(C)(C)c1cc(-c2cc(CNC(=O)NCC(=O)O)on2)cc(C(C)(C)C)c1O` [Example 56, (3-(3-(4-Hydroxy-3,5-di-tert-butylphenyl)isoxazol-5-ylmethyl)ureido)acetic acid] the ED50 [1] was ~50 mg/kg.

For `CCOC(=O)CNC(=O)NCc1cc(-c2cc(C(C)(C)C)c(O)c(C(C)(C)C)c2)no1` [Example 54, Ethyl (3-(3-(4-hydroxy-3,5-di-tert-butylphenyl)isoxazol-5-ylmethyl)ureido) acetate], the ED50 [1] was 1 to 3 mg/kg and the IC50 [2] was 5 to 10 µM.

`CC(C)(C)c1cc(C2=NOC(P(=O)(O)O)C2)cc(C(C)(C)C)c1O` (stereo not shown) [Example 6, 3-(4-Hydroxy-3,5-di-tert-butylphenyl)-2-isoxazolin-5-ylphosphonic acid] showed an ED50 [1] of ~50 mg/kg.

`COP(=O)(O)C1CC(c2cc(C(C)(C)C)c(O)c(C(C)(C)C)c2)=NO1` (stereo not shown) [Example 7, Monomethyl 3-(4-hydroxy-3,5-di-tert-butylphenyl)-2-isoxazolin-5-ylphosphonate] gave an ED50 [1] of 10 to 30 mg/kg and an activity at 100 µM [3] of 95%.

`CC(C)(C)c1cc(C2=NOC(CO)C2)cc(C(C)(C)C)c1O` (stereo not shown) [Example 1, 3-(4-Hydroxy-3,5-di-tert-butylphenyl)-5-hydroxymethyl-2-isoxazoline] was tested, and the inhibition in vivo at 50 mg/kg [4] was 70%, the ED50 [1] was 10 to 50 mg/kg and the IC50 [2] was 5 to 10 µM. The activity at 10 µM [5] was 92% and the activity at 10 µM [3] was 93%.

With `C/C(O)=C(\C#N)C(=O)NCc1cc(-c2cc(C(C)(C)C)c(O)c(C(C)(C)C)c2)no1` [Example 53, 2-Cyano-3-hydroxybut-2-enecarboxylic acid(3-(4-hydroxy-3,5-di-tert-butylphenyl)isoxazol-5-ylmethyl)amide] the inhibition in vivo at 25 mg/kg [4] was 48%, the ED50 [1] was 10 to 50 mg/kg and the IC50 [2] was 8 to 10 µM.

With `CC(C)(C)c1cc(-c2cc(COC(=O)NCC(=O)O)on2)cc(C(C)(C)C)c1O` [Example 40, N-(3-(4-Hydroxy-3,5-di-tert-butylphenyl)isoxazol-5-ylmethoxycarbonyl)glycine] the ED50 [1] was 1 to 3 mg/kg and the IC50 [2] was < 5 µM.

For `C[C@H](O)[C@@H]1CC(c2cc(C(C)(C)C)c(O)c(C(C)(C)C)c2)=NO1` (relative stereo) [Example 20], the inhibition in vivo at 25 mg/kg [4] was 67%, the ED50 [1] was ~50 mg/kg and the IC50 [2] was < 5 µM. For the same molecule, the activity at 10 µM [3] was 100%.

`CC(OC(=O)[C@@H](N)Cc1ccccc1)C1CC(c2cc(C(C)(C)C)c(O)c(C(C)(C)C)c2)=NO1` (stereo partly drawn) [Example 73, L-Phenylalanine-1-(3-(4-hydroxy-3,5-di-tert-butylphenyl)-2-isoxazolin-5-yl)ethyl ester hydrochloride] was tested, and the inhibition in vivo at 50 mg/kg [4] was 73%, the activity at 1 µM ([6]; 1 μM) was 100% and the activity at 10 µM [6] was 9%. The activity at 25 µM ([3]; 25 μM) was 100%.

`CC(C)(C)c1cc(-c2cc(CCOC(=O)NCC(=O)O)on2)cc(C(C)(C)C)c1O` [Example 43, N-(2-(4-Hydroxy-3,5-di-tert-butylphenyl)isoxazol-5-ylethoxycarbonyl)glycine] showed an activity at 10 µM [5] of 93% and an activity at 100 µM [3] of 99%.

With `Cc1cc(CNC(=O)C2(C)CC(c3cc(C(C)(C)C)c(O)c(C(C)(C)C)c3)=NO2)cc(C)c1O` (stereo not shown) [Example 14] the ED50 [1] was 10 to 50 mg/kg and the activity at 10 µM [3] was 100%.

In the case of `Cc1oncc1C(=O)NCc1cc(-c2cc(C(C)(C)C)c(O)c(C(C)(C)C)c2)no1` [Example 52], the ED50 [1] is reported as 3 to 10 mg/kg and the IC50 [2] is reported as < 5 µM.

`CC(C)(OCc1cc(-c2cc(C(C)(C)C)c(O)c(C(C)(C)C)c2)no1)C(=O)O` [Example 36, 2-(3-(4-Hydroxy-3,5-di-tert-butylphenyl)isoxazol-5-ylmethoxy)-2-methylpropionic acid] showed an activity at 10 µM [5] of 93% and an activity at 100 µM [3] of 87%.

`CC(C)(C)c1cc(-c2cc(CN)on2)cc(C(C)(C)C)c1O` [Example 48] showed an inhibition in vivo at 50 mg/kg [4] of 60%, an ED50 [1] of 10 to 50 mg/kg and an IC50 [2] of 5 to 10 µM.

For `CC(C)(C)c1cc(C2=NOC(c3ccsc3)C2)cc(C(C)(C)C)c1O` (stereo not shown) [Example 8], the inhibition in vivo at 50 mg/kg [4] was 67%, the ED50 [1] was ~10 mg/kg and the IC50 [2] was < 5 µM. It also gave an activity at 1 µM ([5]; 1 μM) of 93%, an activity at 10 µM [5] of 15% and an activity at 100 µM [3] of 91%.

Molecule `CC(OC(=O)[C@@H](N)Cc1ccccc1)c1cc(-c2cc(C(C)(C)C)c(O)c(C(C)(C)C)c2)no1` (stereo partly drawn) [Example 70, L-Phenylalanine-1-(3-(4-hydroxy-3,5-di-tert-butylphenyl)isoxazol-5-yl)ethylester hydrochloride] has an inhibition in vivo at 25 mg/kg [4] of 59%, an activity at 10 µM [6] of 22% and an IC50 [2] of 5 µM.

With `COP(=O)(OC)C1CC(c2cc(C(C)(C)C)c(O)c(C(C)(C)C)c2)=NO1` (stereo not shown) [Example 5] the ED50 [1] was < 10 mg/kg and the activity at 100 µM [3] was 98%.
